Measurements taken from patent publication US20040092495A1, “Biguanide derivatives” (priority 2001, published 2004).

Assays:
N5STZ rats = assay: Antidiabetic activity in N5STZ rats (oral, change in glycaemia); type: in vivo; settings: four days of treatment, N5STZ diabetic rats, blood sample two hours after final administration
Method: Study of the Antidiabetic Activity in N5STZ Rats
The oral antidiabetic activity of the compounds of the formula (I) was determined on an experimental model of non-insulin-dependent diabetes induced in the rats using steptozotocin.
The model of non-insulin-dependent diabetes is obtained in the rats by means of an injection of steptozotocin on the 5th day after birth.
The diabetic rats used are eight weeks old. The animals are housed, from the day of birth to the day of the experiment, in an animal house at a regulated temperature of 21 to 22° C. and subjected to a fixed cycle of light (from 7 a.m. to 7 p.m.) and darkness (from 7 p.m. to 7 a.m.). Their food consisted of a maintenance diet, and water and food were given “ad libitum”, with the exception of fasting two hours before the tests, during which period the food is removed (post-absorptive state).
The rats are treated orally with the test product for four (D4) days. Two hours after the final administration of the product and 30 minutes after the animals have been anaesthetised with pentobarbital sodium (Nembutal®), a 300 μl blood sample is taken from the end of the tail.
By way of example, results obtained with compound 1 prepared above are collated compared with metformin in the following table.

[1] = system: perfused leg of N5STZ rats; assay: Sorption of glucose on the perfused leg of N5STZ rats in absence of insulin; type: in vivo; settings: perfused back leg of N5STZ rats; for sorption of glucose: compound 10 μg/mL, 8 mmol/L glucose, n = 4

Compound | percentage change in the glycaemia on D4 relative to DO (N5STZ rats; 25 mg/kg) [%] | percentage change in the glycaemia on D4 relative to DO (N5STZ rats; 50 mg/kg) [%] | percentage change in the glycaemia on D4 relative to DO (N5STZ rats; 100 mg/kg) [%] | sorption of glucose [1] | induction of sorption of glucose by the muscle in absence of insulin (in words) [1]
CN(C)C(=N)NC(=N)N1CCCC1.Cl [Compound 1, Dimethylaminoiminomethylpyrrolidinecarboximidamide Hydrochloride] | −6 | −23 | −36 | 116.08 ± 20.63 (n = 4) μmol/g/l | –
CN(C)C(=N)N=C(N)N [Metformin, metformin] | −13 | −22 | −21 | 32.09 ± 7.25 (n = 4) μmol/g/l | no effect
